From patent publication US20240382476A1, “ANDROGEN RECEPTOR BIOMARKERS FOR CANCER THERAPY” (priority 2021, published 2024)

Assays:
[1] = system: PC-3 (AR−) prostate tumors; experiment: Antitumor activity in mice bearing subcutaneously xenografted PC-3 prostate tumors; assay type: in vivo, nude mice; settings: PC-3 (AR−) s.c. xenograft, 21-days s.c. continuous infusion by osmotic pump
Description: (§1) Animal Models. Five or six-week old male nude mice were purchased from SPF Biotechnology Co., Ltd. (Beijing, China). The prostate tumor cell suspensions (PC-3 or 22RV1) were grafted subcutaneously into the flank of nude mice at a concentration of 3×10^6 cells/mouse. Eight mice whose tumor volumes length×width^2×0.5 (length×width^2×0.5) reached approximately 100 mm^3 were divided into groups. For 21-days subcutaneous (s.c.) continuous infusion, an osmotic pump containing YM155 was implanted in the dorsum of each animal. Body weight and tumor diameter were measured every 3-4 days. The results are shown in FIG. 6A (AR^−) and 6B (AR^+). Anti-tumor activities are expressed as percent inhibition of tumor growth. The percent inhibition of tumor growth on day 21/28 was calculated using following formula: Mean % Inhibition=(mean (Control)−mean (YM155))/mean (Control)*100%. The treatment was started at day 0; vertical bars, SEM.

[2] = system: 22RV1 (AR+) prostate tumors; experiment: Antitumor activity in mice bearing subcutaneously xenografted 22RV1 prostate tumors; assay type: in vivo, nude mice; settings: 22RV1 (AR+) s.c. xenograft; 21-days s.c. continuous infusion by osmotic pump
Description: as §1

[3] = system: AR− and AR+ prostate carcinoma cells (PC-3, DU145, 22Rv1, LNCaP, VcaP, LNCaP clone FGC); experiment: Cell treatment and proliferation assay with high content imaging; assay type: cell-based, human; settings: 6.25-100 nM for 72 hrs (FIG. 2); 10 nM for 2-72 hrs (FIGS. 3A-3B)
Description: Cell Treatment and proliferation assay. PC-3 and DU145 cells were seeded in 96-well plates (Corning, USA) at 2000 cells/well; LNCaP, VcaP, and LNCaP clone FGC cells were seeded at 5000 cells/well; and 22Rv1 cells were seeded at 3000 cells/well. Cells were treated with 10 nM YM155 or 0.1% DMSO (VWR, USA) for different times (2, 6, 24, 48, and 72 hrs). DU145 cells were also treated with YM155 (10 nM) in further combination with etoposide (0.2 ∪M)+carboplatin (2 ∪M), etoposide (0.2 ∪M)+cisplatin (2 μM), or docetaxel (0.005 μM)+carboplatin (2 μM). At indicated times, cells were fixed with Formaldehyde (final concentration at 4 or 5%; Thermo, USA) for 30-40 minutes at room temperature. The cells were washed three times with PBS (Cellmax, China), then blocked and permeabilized with 3% BSA (Sigma, USA) in 0.5% Triton X-100 (Sigma, USA) for 2 hrs at room temperature. After discarding the supernatant, the cells were incubated with DAPI (Beyotime, China) for 10 minutes at room temperature, then washed again three times with PBS. The cells were kept in PBS and protected from light throughout experiments. The treated cells were scanned for image acquisition with CellInsight™ CX5 High-Content Screening (HSC) Platform (Thermo Fisher), equipped with filters for DAPI (Ex: 386 nm).
PC-3, DU145, 22Rv1, LNCaP, VcaP, and LNCaP clone FGC cells were seeded in 96-well plates at 2000 cells/well. […]

**Q.** Which “percent inhibition of tumor growth relative to control” value ([1]; day 21) does the source give for “1-(2-Methoxyethyl)-2-methyl-4,9-dioxo-3-(pyrazin-2-ylmethyl)-4,9-dihydro-1H-naphtho [2,3-d] imidazolium bromide [YM155]” here?
**A.** The value was 89.62%.

**Q.** What about the “percent inhibition of tumor growth relative to control” value ([1]; day 28) of the same substance?
**A.** Its value is 93.63%.

**Q.** And the “activity towards tumor growth relative to control” value [2]?
**A.** The value was “no significant difference”.

**Q.** And the “sensitivity of AR− versus AR+ prostate carcinoma cells to treatment (total cell count)” value [3]?
**A.** The value was “more sensitive”.
